Results published in patent publication US20120190788A1, “COLORING PARTICLES” (CANON KABUSHIKI KAISHA, priority 2011, published 2012).
≈ marks a conversion by molar mass, not a printed value.

What was measured:
physchem = details: 25 °C
Source text: Fine and highly monodispersed coloring particles intended according to aspects of the present invention may contain a dye hardly soluble in the water contained in the second liquid described later. […] The solubility parameter of the dye, however, may vary depending on the pH of the water containing it.
The solubility parameter used according to aspects of the present invention can be calculated by measuring the degree of water solubility (mol/L) of the dye by any known experimental method and then substituting the measurement into equation (1). […] For dyes such as metal complex dyes and salt dyes, the metal or salt is first removed, and then the degree of solubility is calculated using ACD/Structure Design Suite and the solubility parameter is calculated from the value.

[1] = in water; cited from earlier work

solubility (physchem; pH 6, aqueous buffer) [nM]	solubility (physchem; pH 11, aqueous buffer) [nM]	SMILES	Critical micelle concentration [1] [g/mL]
≤ 0.631		CC1(C)Nc2cccc3c(/N=N/c4ccc(/N=N/c5ccccc5)c5ccccc45)ccc(c23)N1 [dye 1]	
≤ 0.631		Cc1cccc(Nc2cccc3c2C(=O)c2cccc(Nc4cccc(C)c4)c2C3=O)c1 [dye 2]	
0.794 (≈ 0.387 ng/mL)	813 (≈ 396 ng/mL)	Cc1cc(Br)c(Nc2ccc(O)c3c2C(=O)c2ccccc2C3=O)c(Br)c1 [dye 4]	
		CCCCCCCCCCCCOS(=O)(=O)[O-].[Na+] [sodium dodecyl sulfate]	0.0025
